Columns and labels:
NMDA receptor = test: Blockage of NMDA-induced seizure activity and lethality in mice pretreated with the antagonist; format: in vivo; conditions: for mice survived following NMDA induced seizures: male CD-1 mice, groups of 5, sc 20 min before NMDA 200 mg/kg IP, 4 h observation, highest equivalent memantine dose (memantine hydrochloride 30 mg/kg sc); for protection in the NMDA-induced seizure/mortality test: sc, Example 4 at equivalent memantine dose, Examples 1 and 2 administered as suspensions
Excerpt: Briefly, the test measures blockage of seizure activity and lethality in mice produced by the administration of NMDA when pretreated with the antagonists. [see Leander, J. D., et al., Brain Res. 448, 115-120 (1988) and Parsons, C. G., et al., Neuropharmacol 34, 1239-1258; (1995)].
Test protocol: Groups of 5 male CD-1 mice weighing 24±2 g were used. Male CD-1 (Crl.) mice were provided by BioLasco Taiwan (under Charles River Laboratories Technology License). Space allocations for animals were as follows: 29×18×13 cm for 5 mice. Mice were maintained in a controlled temperature (22° C.-24° C.) and humidity (60%-80%) environment with 12 h light/dark cycles for at least one week in MDS Pharma Services—Taiwan Laboratory prior to use. Free access to standard lab chow for mice [MF-18 (Oriental Yeast Co., Ltd., Japan)] and RO water was granted. [All aspects of this work including housing, experimentation and disposal of animals were performed in general accordance with the Guide for the Care and Use of Laboratory Animals (National Academy Press, Washington, D.C., 1996).]
Test substance was administered by subcutaneous (sc) injection 20 min before challenge with NMDA 200 mg/kg by intraperitoneal injection (IP). The animals were placed individually in glass jars and observed over a period of 4 h for presence of clonic convulsions, tonic convulsions and mortality. The onset of clonic and tonic convulsions as well as death was recorded and incidence of clonic seizures, tonic seizures and death was reported. Inhibition of NMDA (200 mg/kg, IP)-induced tonic convulsions/mortality (mainly mortality) in more than 50 percent (>50%) of the 5 mice during the following 4 h indicates possible NMDA receptor antagonist activity. Memantine hydrochloride at 30 mg/kg sc was used as positive control.
The vehicle used for dissolution was 20% aqueous DMSO.

[1] = ambient conditions in air and humidity, after 50 days; cited from earlier work
[2] = Solubility in the dosing vehicle (20% aqueous DMSO); format: physicochemical

CC12CC3CC(C)(C1)CC([NH3+])(C3)C2.CC12CC3CC(C)(C1)CC([NH3+])(C3)C2.[S]=[Mo](=[S])([S-])[S-] [Example 3, Bis(1-ammonium-3,5-dimethyladamantane) tetrathiomolybdate]
more effective than memantine at an equivalent dose (NMDA receptor; NMDA-induced clonic seizures and mortality in mice, equivalent dose (30 mg)): 40%
mice survived following NMDA induced seizures (NMDA receptor): 4/5
inhibition of NMDA-induced clonic seizures and mortality (NMDA receptor; mice, sc pretreatment at three doses, NMDA 200 mg/kg IP): in a dose dependent manner
time to seizures (NMDA receptor; mice, highest equivalent memantine dose, compared with memantine): notably prolonged
protection from tonic seizures (NMDA receptor; mice, low, medium and high doses, without DMSO solvate, similar to the high dose of memantine): protected from tonic seizures

CC1(C)CC(C)(C)CC(C)([NH3+])C1.CC1(C)CC(C)(C)CC(C)([NH3+])C1.[S]=[Mo](=[S])([S-])[S-] [Example 4, Bis(1-ammonium-1,3,3,5,5-pentamethylcyclohexane)tetrathiomolybdate]
protection in the NMDA-induced seizure/mortality test (NMDA receptor; mice): complete protection

[NH4+].[NH4+].[SH-].[SH-].[S]=[Mo]=[S] [TM, diammonium tetrathiomolybdate]
loss in activity [1]: ~55%

CC12CC3CC(C)(C1)CC(N)(C3)C2 [memantine, 1-amino-3,5-dimethyladamantane, reference compound]
mice survived following NMDA induced seizures (NMDA receptor): 5/5

Bis(1-methylammoniumadamantane) tetrathiomolybdate [Example 2]
solubility in the vehicle [2]: inadequate solubility
protection in the NMDA-induced seizure/mortality test (NMDA receptor; mice): not protective
